# What was measured:
# [1] = tested on: global DNA methylation (5-methylcytosine); assay: Global DNA methylation (5-methylcytosine) LC-MS/MS assay in SKM-1 tumor and mouse bone marrow; format: in vivo
# Method: (§1) SKM-1 cells (3.8×10^6) suspended in 50% Matrigel (BD Biosciences)/50% Dulbecco's phosphate-buffered saline (DPBS) were implanted in 8-11 week old female NOD.CB17-Prkdc1NCrCrl mice. Tumors were measured with digital calipers, and stratified block randomized according to tumor size (P value >0.9085) into treatment groups with average tumor volumes of 219 or 1076 mm^3 for efficacy or PK/PD studies respectively. GSK4172239A was formulated weekly in Sterile water. Mice were measured twice weekly for body weight and tumor size. Dosing started on the day after randomization. Animals were dosed twice daily (BID) via oral gavage (PO) with Example 1 at 22, 67, or 200 mg/kg. A maximal tumor burden of 2,500 mm^3 for two consecutive measurements was not exceeded during the studies. For the PK/PD study, tumor, blood, and bone marrow were collected two hours following the 20th dose (10 days). For PK, blood was mixed 50:50 with water while tumor was homogenized (Omni hand-held homogenizer) in sterile water at a 1:4 dilution. Both samples were precipitated with acetonitrile, and concentrations of Example 4 were determined by HPLC—MS/MS (Waters Acquity uPLC, Sciex API5000). SKM-1 tumor and mouse bone marrow samples were assessed using a global DNA methylation (5-methylcytosine) LC-MS/MS assay. […] An HPLC—MS/MS method was optimized to quantify 2′-deoxycytidine and 5-methyl-2′-deoxycytidine. […] Concentrations of 2′-deoxycytidine and 5-methyl-2′-deoxycytidine were determined using standard curves generated from pure 2′-deoxycytidine (Sigma-Aldrich) and 5-methyl-2′-deoxycytidine (Santa Cruz Biotechnology). […]
# (§2) Example 1 was evaluated in immunocompromised mice bearing subcutaneous SKM-1 human AML (acute myeloid leukemia) xenografts. […] In addition, the mechanistic consequence of inhibiting DNMT1, a decrease in DNA methylation, was assessed globally using a LC-MS/MS-based 5-methylcytosine assay. […] In a subsequent study, to examine anti-tumor efficacy, tumor volume was measured (n=10 animals per group) twice weekly for 4 weeks while on treatment.
# physchem = conditions: FaSSIF buffer, pH 6.5, fassif, thermodynamic from solid
# Method: Solubility of Solid Compounds in Fasted Simulated Intestinal Fluid
# The solubility of solid compounds in Fasted Simulated Intestinal Fluid (FaSSIF) was determined at pH 6.5 after 4 hour equilibration at room temperature (using procedures described in Sou, T.; Bergström, C. A. S. Automated assays for thermodynamic (equilibrium) solubility determination. Drug Discovery Today: Technologies 2018, 27, 11-19). 1 ml of FaSSIF buffer (3 mM Sodium taurocholate, 0.75 mM lecithin in sodium phosphate buffer at pH6.5) was added to manually weighed 1 mg of solid compound in a 4 ml vial. The resulting suspension was shaken at 900 rpm for 4 hours at room temperature and then transferred to a Multiscreen HTS, 96-well solubility filter plate to separate the residual solid and the filtrate. Quantification of the compound concentration in the filtrate was performed by HPLC-UV using single point calibration of a known concentration of the compound in DMSO. […] The dynamic range of the assay was 1-1000 μg/ml.
# [2] = tested on: SKM-1 human AML (acute myeloid leukemia) xenografts; assay: Anti-tumor efficacy in subcutaneous SKM-1 human AML xenografts; format: in vivo, mouse
# Method: as §1, §2
# Full-length human DNMT1 = Full-length human DNMT1 (Homo sapiens (Human), UniProt P26358); assay: DNMT1 Scintillation Proximity Assay (SPA) - Assay A; format: biochemical; conditions: footnote a: DNMT1 full length
# Full-length human DNMT1, sequence (P26358 whole entry): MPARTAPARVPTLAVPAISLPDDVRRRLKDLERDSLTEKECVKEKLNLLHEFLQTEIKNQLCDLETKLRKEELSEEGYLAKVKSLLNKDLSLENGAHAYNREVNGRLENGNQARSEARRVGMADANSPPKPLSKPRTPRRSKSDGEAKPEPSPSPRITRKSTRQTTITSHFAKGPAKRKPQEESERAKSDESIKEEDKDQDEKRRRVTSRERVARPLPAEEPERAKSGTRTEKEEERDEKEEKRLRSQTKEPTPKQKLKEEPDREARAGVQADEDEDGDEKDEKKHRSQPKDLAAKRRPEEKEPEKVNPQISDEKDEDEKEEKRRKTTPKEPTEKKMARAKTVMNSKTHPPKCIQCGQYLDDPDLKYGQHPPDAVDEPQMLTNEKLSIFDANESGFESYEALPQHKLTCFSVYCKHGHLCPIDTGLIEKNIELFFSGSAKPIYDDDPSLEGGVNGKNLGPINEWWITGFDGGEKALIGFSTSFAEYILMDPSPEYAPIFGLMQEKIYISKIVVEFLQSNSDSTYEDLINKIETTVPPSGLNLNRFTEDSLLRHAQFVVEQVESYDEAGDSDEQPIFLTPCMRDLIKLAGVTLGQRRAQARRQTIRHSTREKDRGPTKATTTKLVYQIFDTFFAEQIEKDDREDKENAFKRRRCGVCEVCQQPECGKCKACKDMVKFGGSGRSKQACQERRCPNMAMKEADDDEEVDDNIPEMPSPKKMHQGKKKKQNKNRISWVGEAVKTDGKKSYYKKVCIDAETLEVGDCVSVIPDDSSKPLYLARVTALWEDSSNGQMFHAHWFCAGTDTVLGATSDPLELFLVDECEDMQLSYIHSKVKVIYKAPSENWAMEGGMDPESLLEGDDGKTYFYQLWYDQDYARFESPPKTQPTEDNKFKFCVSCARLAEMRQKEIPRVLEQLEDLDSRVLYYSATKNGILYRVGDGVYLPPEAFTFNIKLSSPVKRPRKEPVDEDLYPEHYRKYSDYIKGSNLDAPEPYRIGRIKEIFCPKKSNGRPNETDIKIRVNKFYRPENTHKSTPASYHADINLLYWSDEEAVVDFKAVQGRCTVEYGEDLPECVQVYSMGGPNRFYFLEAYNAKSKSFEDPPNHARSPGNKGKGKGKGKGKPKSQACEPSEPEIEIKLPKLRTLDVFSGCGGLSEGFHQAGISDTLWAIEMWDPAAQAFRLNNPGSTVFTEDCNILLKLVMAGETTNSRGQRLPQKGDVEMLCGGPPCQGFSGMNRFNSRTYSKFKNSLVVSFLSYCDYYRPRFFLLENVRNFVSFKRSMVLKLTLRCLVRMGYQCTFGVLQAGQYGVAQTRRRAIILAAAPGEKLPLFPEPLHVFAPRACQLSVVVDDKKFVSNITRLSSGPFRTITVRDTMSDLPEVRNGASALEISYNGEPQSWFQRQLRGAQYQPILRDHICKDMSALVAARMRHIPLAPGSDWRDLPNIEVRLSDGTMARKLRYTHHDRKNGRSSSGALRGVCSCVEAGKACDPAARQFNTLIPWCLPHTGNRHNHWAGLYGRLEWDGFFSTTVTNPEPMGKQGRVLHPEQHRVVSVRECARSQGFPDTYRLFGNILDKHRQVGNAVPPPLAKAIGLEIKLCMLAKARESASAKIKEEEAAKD
# Method: DNMT1 Scintillation Proximity Assay (SPA)—Assay A (Full-Length Human DNMT1)
# This assay used Scintillation Proximity technology in a signal increase format to evaluate the potency of compounds. Full-length human DNMT1, hemi-methylated DNA duplex*, and tritiated SAM were utilized to monitor activity. Assay plate creation consisted of the following parameters: 500 nL of an 11 pt, 3-fold serial dilution of compound was stamped into a 96 well Costar plate (#3884). Assay buffer mix was made on the day of assay consisting of: 20 mM Tris pH 7.5, 1 mM DTT, 1 mM EDTA, and 5% glycerol. A 2× enzyme mix was then prepared consisting of 30 nM DNMT1 protein (full length human DNMT, made in house) in assay buffer. The 2× substrate mix was made last, and consisted of 160 nM 40mer hemi-methylated DNA*, 0.48 μM ^3H-SAM, and 2.92 μM cold SAM in assay buffer (^3H-SAM is added last). The quench (1 mM SAH) was made in bulk and frozen at −20 until the time of use. Ten uL of the 2× substrate mix was added to the entire plate using a multichannel electronic pipette. Plate was shaken for at least 10s between additions to ensure mixing. Next, 20 uL of 2× quench mix was added to column 12 using a multichannel pipette (shake plate). Using a multichannel electronic pipette, 10 uL of 2× enzyme mix was added to the full plate starting with column […] (column 12 last to avoid pre-quench carryover). Plates were incubated on the shaker for 30 minutes with the plate covered. At the end of the incubation period, 20 uL of quench mix were added to all wells except column 12 (shake plate) followed by the addition of 20 uL of 3 mg/mL PerkinElmer PEI PVT SPA Beads (Cat. #RPNQ0097) diluted in DNAse free water and allowed to shake for at least 30 minutes. Plates were sealed with a clear seal and centrifuged at 500 rpm for 1 min. Plates were read on a MicroBeta (Perkin Elmer, read for ^3H (1 min/well).
# Microsoft Excel was used to analyze the data up to Vi/Vo and GraFit was used to fit the data. Responses were normalized to the uninhibited (DMSO) and pre-quenched controls within each plate. Dose-response curves were analyzed using a three-parameter logistic fit with Ymin constrained to 0 and results were expressed as IC50 values.
# Final assay conditions: 20 mM Tris (Hampton Research—HR-937-06), pH 7.5, 1 mM DTT (Invitrogen—P2325), 1 mM EDTA (Invitrogen—AM9260G), 5% Glycerol (Teknova—G1796), 0.02% Pluronic F127 (Life Technologies—P6866), 15 nM DNMT1 (full length human DNMT1—GSK made in-house), 240 nM ^3H-SAM (PerkinElmer—NET155H001MC), 1460 nM cold SAM (New England Biolabs—B9003S) and 80 nM 40-mer hemi-methylated DNA Oligonucleotide (Integrated DNA Technologies—custom), 1 mM SAH (Sigma A9384), and 1 mg/mL PEI PVT SPA Beads (Perkin Elmer RPNQ0097) resuspended in water.
# [3] = Drug exposure in blood and tumor of mice bearing SKM-1 xenografts (PK/PD study); format: in vivo, mouse; conditions: 22, 67 or 200 mg/kg BID PO; blood and tumor two hours following the 20th dose
# Method: as §1, with “A maximal tumor burden of 2,500 mm^3 for two consecutive measurements was not exceeded during the studies. For the PK/PD study, tumor, blood, and bone marrow were collected two hours following the 20th dose (10 days). For PK, blood was mixed 50:50 with water while tumor was homogenized (Omni hand-held homogenizer) in sterile water at a 1:4 dilution.” left out
# Example 1 was evaluated in immunocompromised mice bearing subcutaneous SKM-1 human AML (acute myeloid leukemia) xenografts. […]
smiles,measurement,setting,value
"CCc1c(C#N)c(S[C@@H](C(=O)NP(=O)(O)O)c2ccc(OS(C)(=O)=O)cc2)nc(N(C)C)c1C#N [Example 1, (R)-(2-((3,5-dicyano-6-(dimethylamino)-4-ethylpyridin-2-yl)thio)-2-(4-((methylsulfonyl)oxy)phenyl)acetyl)phosphoramidic acid]",global DNA methylation in comparison to vehicle,"[1]; 22, 67 or 200 mg/kg BID PO, 10 days",reduced at all doses
same,maximal change (reduction) in global DNA methylation in the tumor vs vehicle,"[1]; SKM-1 tumor, 200 mg/kg BID PO, two hours following the 20th dose (10 days)",49%
same,maximal change (reduction) in global DNA methylation in the bone marrow vs vehicle,"[1]; mouse bone marrow, 200 mg/kg BID PO, two hours following the 20th dose (10 days)",47%
same,solubility at 4 h,physchem,> 1000 µg/mL
same,tumor growth inhibition,"[2]; 22 mg/kg BID PO, vs vehicle at day 22",35%
same,tumor response,"[2]; 200 mg/kg BID PO, vs vehicle at day 22",marked regression
same,tumor volume,"[2]; 22, 67 or 200 mg/kg BID PO, measured twice weekly for 4 weeks",dose-dependent reduction
same,IC50,Full-length human DNMT1,16.1 µM
same,drug exposure (measured as the racemic active moiety Example 4),[3],dose-proportional and roughly equivalent in blood and tumor

# — patent publication US11771711B2, “Substituted pyridines as DNMT1 inhibitors” (GlaxoSmithKline Intellectual Property Development Limited, priority 2021, dated 2023)
